Laboratory results from PubChem BioAssay (NCI).
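Following 48 hours of exposure in 96-well plates, responses at five concentrations were used to interpolate endpoints linearly. TGI: total growth inhibition.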 Where a SMILES comes first, the peptide text is derived from it. The star is where a group is joined. Boc = CC(C)(C)OC(=O)*; OSu = O=C1CCC(=O)N1O*

Assays:
Assay in all cases: inhibition of tumour cell growth, NCI panel, 48 h
NCI/ADR-RES ovarian = system: NCI/ADR-RES ovarian
ACHN renal = system: ACHN renal
SNB-75 CNS = system: SNB-75 CNS
HT29 colon = system: HT29 colon
M14 melanoma = system: M14 melanoma
UACC-257 melanoma = system: UACC-257 melanoma
HS 578T breast = system: HS 578T breast
A549 NSCLC = system: A549 NSCLC
HCT-15 colon = system: HCT-15 colon
NCI-H23 lung = system: NCI-H23 lung
NCI-H226 lung = system: NCI-H226 lung

Structure (SMILES) | TGI (NCI/ADR-RES ovarian) | TGI (ACHN renal) | TGI (SNB-75 CNS) | TGI (HT29 colon) | TGI (M14 melanoma) | TGI (UACC-257 melanoma) | TGI (HS 578T breast) | TGI (A549 NSCLC) | TGI (HCT-15 colon) | TGI (NCI-H23 lung) | TGI (NCI-H226 lung)
O=C1CC(O)c2c1csc2Br (stereo not drawn) | 49 µM | 45.4 µM | > 100 µM | > 100 µM | 35.5 µM | 31.4 µM | 72.4 µM | > 100 µM | 39 µM | 59.1 µM | 
CC(C)(C)OC(=O)NC(Cc1ccc(O)cc1)C(=O)NC(CCCCN)C(=O)NC(Cc1ccc(O)cc1)C(=O)NC(CCCCN)C(=O)ON1C(=O)CCC1=O (stereo not drawn) (Boc-YKYK-OSu; configuration not given here) |  | > 100 µM | > 100 µM | > 100 µM | > 100 µM | > 100 µM | > 100 µM | > 100 µM | > 100 µM | > 100 µM | > 100 µM
C#CCNC(=O)NC(CCCNC(=O)OCc1ccccc1)C(=O)OCc1ccccc1 (stereo not drawn) |  | > 100 µM | > 100 µM | > 100 µM | 50.6 µM | 93.3 µM |  | > 100 µM | > 100 µM | > 100 µM | > 100 µM
O=C1CC(C(O)CO)CC(=O)N1 (stereo not drawn) | > 100 µM | > 100 µM |  | > 100 µM | > 100 µM | > 100 µM | > 100 µM | > 100 µM | > 100 µM | > 100 µM | > 100 µM
COC1O[C@H]2CCN(C(=O)OCc3ccccc3)[C@H]2[C@H]1OCc1ccccc1 (stereo partly drawn) |  | > 100 µM | > 100 µM | > 100 µM | > 100 µM | > 100 µM |  | > 100 µM | > 100 µM | > 90.5 µM | > 100 µM
CCOC(=O)C1=C(C)N(c2ccccc2)C2=C(C(=O)N(c3ccccc3)C2c2ccccc2)C1c1ccccc1 (stereo not drawn) |  | > 100 µM | > 100 µM | > 100 µM | > 100 µM | > 100 µM |  | > 100 µM |  | > 100 µM | > 100 µM
COC(=O)c1cc(CC(C)C)c2c(c1)[nH]c1ccccc12 |  | > 100 µM | > 100 µM | > 100 µM | > 100 µM |  |  | > 100 µM | > 100 µM | > 100 µM | > 100 µM
Cc1cc(=O)cc2sc3c(C)cccc3nc1-2 |  | > 100 µM | > 100 µM | > 100 µM | 52 µM | > 100 µM |  | > 100 µM | > 100 µM | > 100 µM | 
[N-]=[N+]=Nc1c(Cl)c(=O)n(-c2ccccc2)c2ccccc12 | > 100 µM | 49.2 µM | 50.8 µM | 59.3 µM | 36.3 µM | 47.1 µM | 76.9 µM | > 100 µM | 43.7 µM | 36.7 µM | 
Cc1c(Cl)cccc1NC(=O)C(=O)C1C(=O)CC(C)(C)CC1=O |  | > 100 µM | > 100 µM | > 100 µM | > 100 µM | > 100 µM |  | > 100 µM | > 100 µM | > 100 µM | > 100 µM
O=C(/C=C/c1ccccc1)/C=C/c1ccccc1O |  | 42.1 µM |  | 47.6 µM | 50.7 µM | 44.3 µM |  | 54.3 µM | 32.8 µM | 49.3 µM | 58.1 µM
O=c1[nH]cnc2c(C3OC(CO)C(O)C3O)c[nH]c12 (stereo not drawn) |  | > 100 µM | > 100 µM | > 100 µM | > 100 µM | > 100 µM | > 100 µM | > 100 µM |  | > 100 µM | > 100 µM
COc1ccc(/C(=C/n2ccnc2)C(=O)c2ccc(OC)c(OC)c2)cc1 |  | > 100 µM | > 100 µM |  | > 100 µM | > 100 µM |  | > 100 µM | > 100 µM | > 100 µM | > 100 µM
COC(=O)C(C#N)=C1c2ccccc2Oc2ccccc21 |  | > 100 µM | > 100 µM | > 100 µM | > 100 µM | > 100 µM |  | > 100 µM | > 100 µM | > 100 µM | > 100 µM
CC1C(c2cc(C(C)(C)C)c(O)c(C(C)(C)C)c2)c2cc3c(cc2OC1N1CCOCC1)OCO3 (stereo not drawn) | 87.4 µM | 22.7 µM |  | > 100 µM | 59.3 µM | > 100 µM | 10.6 µM | 48 µM |  | 94.9 µM | 
CCOP(=O)(OCC)[C@H](O)c1ccsc1 | > 100 µM | > 100 µM | > 100 µM | > 100 µM | > 100 µM | > 100 µM |  | > 100 µM | > 100 µM | > 100 µM | > 100 µM
CC(C)C(Sc1nc(-c2ccccc2)c(-c2ccccc2)[nH]1)C(=O)NNC(=S)Nc1ccccc1 (stereo not drawn) |  | 87 µM | 53.6 µM | 36.8 µM | 30.6 µM | 33.5 µM |  | 60.9 µM | 33.8 µM | 37.2 µM | 37.2 µM
COc1ccc2nc(-c3ccc(OCc4ccccc4)cc3)ccc2c1 |  | > 100 µM | > 100 µM | > 100 µM | > 100 µM | > 100 µM |  | > 100 µM |  | > 100 µM | > 100 µM

Structure (SMILES) | TGI (NCI/ADR-RES ovarian) | TGI (ACHN renal) | TGI (SNB-75 CNS) | TGI (HT29 colon) | TGI (M14 melanoma) | TGI (UACC-257 melanoma) | TGI (HS 578T breast) | TGI (A549 NSCLC) | TGI (HCT-15 colon) | TGI (NCI-H23 lung) | TGI (NCI-H226 lung)
Cc1cc2c(cc1C)[n+](=O)c(C(=O)C/C(=N/NC(=O)c1ccccc1O)C(=O)Nc1ccccc1C(C)C)c(C)n2[O-] |  | > 100 µM | > 100 µM | > 100 µM | > 100 µM | > 100 µM |  | > 100 µM | > 100 µM | > 100 µM | > 100 µM
C=CCN(CC=C)Cn1c(=S)sc2ccccc21 | > 100 µM | > 100 µM | > 100 µM |  | > 100 µM | > 100 µM | > 100 µM | > 100 µM | > 100 µM | > 100 µM | 
COc1ccc(-c2c(C#N)c(N)n(C3OC(CO)C(O)C(O)C3O)c(=S)c2C#N)cc1 (stereo not drawn) |  | > 100 µM | > 100 µM | > 100 µM | > 100 µM | > 100 µM | 47.4 µM | > 100 µM | > 100 µM | > 100 µM | > 100 µM
O=C1O[C@@H](c2ccccc2)C[C@@H]1CN1CCOCC1 |  | > 100 µM | > 100 µM | > 100 µM | > 100 µM | > 100 µM |  | > 100 µM | > 100 µM | 64.1 µM | > 100 µM
CCOC(=O)C(OCC1CC=CCC1)Sc1ccccc1 (stereo not drawn) |  | > 100 µM | > 100 µM | > 100 µM | > 100 µM | > 100 µM |  | > 100 µM | > 100 µM | > 100 µM | 
C=CC1=CSNN1 |  | > 100 µM | > 100 µM | > 100 µM | > 100 µM | > 100 µM |  | > 100 µM | > 100 µM | > 100 µM | 
Cc1c(Cl)ccc2c(=O)c3cccc(CC(=O)O)c3oc12 | > 100 µM | > 100 µM |  | > 100 µM | > 100 µM | > 100 µM | > 100 µM | > 100 µM | > 100 µM | > 100 µM | > 100 µM
O=C1CCCN(c2ccccc2)N1 |  | > 100 µM | > 100 µM | > 100 µM | > 100 µM | > 100 µM |  | > 100 µM | > 100 µM |  | > 100 µM
Oc1ccccc1C(c1cc2c(cc1O)OCO2)N1CCOCC1 (stereo not drawn) |  | 31.5 µM | 32 µM | 35.2 µM | 34.3 µM | 36.1 µM | 56.4 µM | 57.6 µM | 36.8 µM | 46.6 µM | > 100 µM
N#Cc1c(N)[nH]c(=S)c(C#N)c1-c1cccc(Cl)c1 | > 100 µM | > 100 µM |  | > 100 µM | > 100 µM | > 100 µM | 94.1 µM | > 100 µM | > 100 µM | > 100 µM | > 100 µM
COc1ccc(C2C(Cl)C(=O)N2NC(=O)c2ccc(NC(C)=O)cc2)cc1 (stereo not drawn) |  | > 100 µM | > 100 µM | > 100 µM | > 100 µM | > 100 µM |  | > 100 µM | > 100 µM | > 100 µM | > 100 µM
N#CCCN(c1ccc(C=Nc2cccc([N+](=O)[O-])c2)cc1)S(=O)(=O)c1ccccc1 |  |  | > 100 µM | > 100 µM | > 100 µM | > 100 µM |  | > 100 µM |  | > 100 µM | > 100 µM
CO[C@@H](C(=O)OC1C=CC2(CC1)C(=O)N(C)c1ccccc12)c1ccccc1 (stereo partly drawn) | > 100 µM | > 100 µM | > 100 µM | > 100 µM | > 100 µM | > 100 µM |  | > 100 µM | > 100 µM | > 100 µM | 
Cc1ccccc1C(C#N)C(=O)C(=O)Nc1nc([N+](=O)[O-])cs1 (stereo not drawn) |  | > 100 µM | > 100 µM | > 100 µM | > 100 µM | > 100 µM |  | > 100 µM | > 100 µM | > 100 µM | > 100 µM
Cc1ccccc1C1OC1C(=O)c1ccccc1N (stereo not drawn) | > 100 µM | > 100 µM |  | > 100 µM | > 100 µM | > 100 µM |  | > 100 µM | > 100 µM | > 100 µM | > 100 µM
Cc1sc2nc3n(c(=O)c2c1C)N=CN(c1ccccc1)C3 | > 100 µM | > 100 µM | > 100 µM | > 100 µM | > 100 µM | > 100 µM |  | > 100 µM | > 100 µM | > 100 µM | > 100 µM
CCOc1ccc(NC(=O)CC2Sc3ccccc3NC2=O)cc1 (stereo not drawn) |  | > 100 µM | 95 µM | > 100 µM | > 100 µM | > 100 µM |  | > 100 µM | > 100 µM | > 100 µM | > 100 µM
